Source: patent US8309546B2, “Morpholinopurine derivatives” (Daiichi Sankyo Company, Limited, priority 2008, dated 2012)

Columns and labels:
[1] = biological target: PI3Kα (Homo sapiens, UniProt P42336); test: PI3K kinase activity inhibition assay; format: biochemical; settings: Kinase-Glo Plus ATP detection, read-out: IC50 against PI3K
Method in brief: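 PI3Kα (50 nM solution) was reacted with 30 μM ATP and 45 μM PIP2 solutions, each in HEPES pH 7.4 with MgCl2 and DTT, for 2 h at room temperature. Remaining ATP was measured by Kinase-Glo Plus luminescence, and inhibition was derived from ATP consumed. IC50 was taken from curve fitting of the serial dilutions.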

[2] = system: human colon cancer cell strain HT29; test: Cell growth inhibition test (MTT), HT29; format: cell-based; settings: HT-29, 72 h, HT29, 3 days culture, read-out: concentration exhibiting anti-cell effect (GI50)
Method in brief: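 Cells were seeded per well (AN3CA 5000, IGROV1 1000, HT29 5000), dosed next day and cultured 3 days at 37° C in 5% CO2. Viable cells were read by MTT (4 h, DMSO-solubilized formazan, A540). GI50 was interpolated between the two concentrations bracketing 50% growth rate (T/C %, corrected for day-0 absorbance).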

[3] = system: human endometrial cancer cell strain AN3CA tumor; test: Anti-tumor effect assay using mouse subcutaneous transplantation model; format: in vivo, female nude mouse; settings: AN3-CA, oral, tumor weight vs negative control, read-out: Anti-tumor effect (tumor growth inhibition rate)
Method in brief: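 Female nude mice bore subcutaneous AN3CA tumour-section xenografts and were grouped at 80 to 200 mm^3 estimated volume. Compound was given orally at a set dose for 8 consecutive days with tumour weight taken the next day, or for 5 days with weight taken on the final dosing day. Effect = {1−(treated/negative-control tumour weight)}×100.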

[4] = 8 or 5 consecutive days depending on compound

PI3Kα, sequence (P42336 whole entry, species assumed): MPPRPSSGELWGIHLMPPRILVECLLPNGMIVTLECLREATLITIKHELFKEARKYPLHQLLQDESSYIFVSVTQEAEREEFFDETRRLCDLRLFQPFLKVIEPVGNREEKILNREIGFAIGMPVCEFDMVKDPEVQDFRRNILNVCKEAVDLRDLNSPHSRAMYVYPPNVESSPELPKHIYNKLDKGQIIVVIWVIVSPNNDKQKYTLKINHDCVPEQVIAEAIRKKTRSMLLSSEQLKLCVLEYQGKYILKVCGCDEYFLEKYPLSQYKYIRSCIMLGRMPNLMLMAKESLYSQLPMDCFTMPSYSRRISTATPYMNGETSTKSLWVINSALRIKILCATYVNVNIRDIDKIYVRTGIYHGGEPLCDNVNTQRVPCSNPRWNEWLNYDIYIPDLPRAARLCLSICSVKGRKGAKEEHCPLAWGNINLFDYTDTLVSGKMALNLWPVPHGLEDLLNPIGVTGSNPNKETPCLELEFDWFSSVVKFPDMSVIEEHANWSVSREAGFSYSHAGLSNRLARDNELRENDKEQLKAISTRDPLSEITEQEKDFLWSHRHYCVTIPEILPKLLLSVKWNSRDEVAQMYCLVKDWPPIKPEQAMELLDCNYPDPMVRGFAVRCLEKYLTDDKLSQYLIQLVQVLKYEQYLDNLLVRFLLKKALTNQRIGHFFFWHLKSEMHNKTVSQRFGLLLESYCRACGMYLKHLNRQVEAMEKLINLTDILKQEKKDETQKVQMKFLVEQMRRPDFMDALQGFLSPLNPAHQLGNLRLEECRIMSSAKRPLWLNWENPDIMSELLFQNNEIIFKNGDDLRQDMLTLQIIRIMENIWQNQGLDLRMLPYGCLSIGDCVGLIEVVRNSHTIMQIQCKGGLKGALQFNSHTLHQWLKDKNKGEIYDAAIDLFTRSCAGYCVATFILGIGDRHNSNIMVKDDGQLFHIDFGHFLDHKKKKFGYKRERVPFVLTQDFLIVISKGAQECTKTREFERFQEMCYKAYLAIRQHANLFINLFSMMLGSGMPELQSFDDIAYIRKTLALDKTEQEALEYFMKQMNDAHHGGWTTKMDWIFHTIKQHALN
PI3Kα, sequence (P27986 whole entry partner, species assumed): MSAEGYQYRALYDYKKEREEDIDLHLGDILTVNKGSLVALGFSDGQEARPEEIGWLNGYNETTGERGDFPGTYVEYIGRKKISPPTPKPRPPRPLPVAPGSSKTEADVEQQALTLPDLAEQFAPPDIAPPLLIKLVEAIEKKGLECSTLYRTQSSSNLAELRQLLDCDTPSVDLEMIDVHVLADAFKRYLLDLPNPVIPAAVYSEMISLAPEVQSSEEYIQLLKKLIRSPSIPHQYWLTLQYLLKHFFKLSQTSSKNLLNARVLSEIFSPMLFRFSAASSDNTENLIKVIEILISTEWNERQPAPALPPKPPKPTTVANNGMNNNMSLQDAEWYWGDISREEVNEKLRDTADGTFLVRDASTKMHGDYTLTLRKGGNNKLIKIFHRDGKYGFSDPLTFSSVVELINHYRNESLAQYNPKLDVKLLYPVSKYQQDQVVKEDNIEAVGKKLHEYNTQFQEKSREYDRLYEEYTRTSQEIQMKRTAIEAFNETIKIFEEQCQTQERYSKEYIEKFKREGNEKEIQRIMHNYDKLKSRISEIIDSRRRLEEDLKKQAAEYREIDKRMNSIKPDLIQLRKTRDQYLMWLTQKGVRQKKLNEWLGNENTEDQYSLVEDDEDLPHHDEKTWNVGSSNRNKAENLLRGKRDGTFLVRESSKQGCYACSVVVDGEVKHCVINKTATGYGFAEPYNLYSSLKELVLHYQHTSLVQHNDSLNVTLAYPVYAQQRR

Work on CNc1ncc(-c2nc(N3CCOCC3)c3nc(N4CCN(C(C)=O)[C@@H](C)C4)n(CC(F)(F)F)c3n2)cn1 [Example 107, 5-{8-[(3S)-4-Acetyl-3-methylpiperazin-1-yl]-6-morpholin-4-yl-9-(2,2,2-trifluoroethyl)-9H-purin-2-yl}-N-methylpyrimidin-2-amine] yielded an IC50 [1] of under 10 nM, a GI50 [2] of at most 5000 nM and an inhibition in vivo at 1.25 mg/kg/day ([3]; 120 h, 1.25 mg/kg/day, 5 consecutive days) of 46%. The inhibition in vivo at 5 mg/kg/day [3, 4] was 76%.
Work on CNc1ncc(-c2nc(N3CCOCC3)c3nc(N4CCN(C(C)=O)[C@H](C)C4)n(CC(F)(F)F)c3n2)cn1 [Example 108, 5-{8-[(3R)-4-Acetyl-3-methylpiperazin-1-yl]-6-morpholin-4-yl-9-(2,2,2-trifluoroethyl)-9H-purin-2-yl}-N-methylpyrimidin-2-amine] yielded an IC50 [1] of 10 to 20 nM, a GI50 [2] of at most 5000 nM and an inhibition in vivo at 2.5 mg/kg/day ([3]; 2.5 mg/kg/day, 8 or 5 consecutive days depending on compound) of 53%. For the same molecule, the inhibition in vivo at 10 mg/kg/day [3, 4] was 82%.
Work on C[C@H](O)C(=O)N1CCN(c2nc3c(N4CCOCC4)nc(-c4cnc(N)nc4)nc3n2CC(F)(F)F)C[C@@H]1C [Example 109, (2S)-1-{(2S)-4-[2-(2-Aminopyrimidin-5-yl)-6-morpholin-4-yl-9-(2,2,2-trifluoroethyl)-9H-purin-8-yl]-2-methylpiperazin-1-yl}-1-oxopropan-2-ol] yielded an IC50 [1] of under 10 nM, a GI50 [2] of at most 5000 nM and an inhibition in vivo at 1.875 mg/kg/day ([3]; 120 h, 5 consecutive days) of 42%. It also gave an inhibition in vivo at 7.5 mg/kg/day ([3]; 120 h, 5 consecutive days) of 80%.
Work on C[C@H](O)C(=O)N1CCN(c2nc3c(N4CCOCC4)nc(-c4cnc(N)nc4)nc3n2CC(F)(F)F)C[C@H]1C [Example 110, (2S)-1-{(2R)-4-[2-(2-Aminopyrimidin-5-yl)-6-morpholin-4-yl-9-(2,2,2-trifluoroethyl)-9H-purin-8-yl]-2-methylpiperazin-1-yl}-1-oxopropan-2-ol] yielded an IC50 [1] of under 10 nM, a GI50 [2] of at most 5000 nM and an inhibition in vivo at 1.875 mg/kg/day ([3]; 120 h, 5 consecutive days) of 43%. For the same molecule, the inhibition in vivo at 7.5 mg/kg/day ([3]; 120 h, 5 consecutive days) was 73%.
C[C@H]1COCCN1c1nc(-c2cnc(N)nc2)nc2c1nc(N1CCN(S(C)(=O)=O)CC1)n2CC(F)(F)F [Example 127, 5-{6-[(3S)-3-Methylmorpholin-4-yl]-8-[4-(methylsulfonyl)piperazin-1-yl]-9-(2,2,2-trifluoroethyl)-9H-purin-2-yl}pyrimidin-2-amine] showed an IC50 [1] of under 10 nM, a GI50 [2] of at most 5000 nM and an inhibition in vivo at 5 mg/kg/day [3, 4] of 69%. The inhibition in vivo at 10 mg/kg/day [3, 4] was 79%.
